Counter-ions that a name gives are not always drawn.
Tests used:
A549 cells = experiment: Test for inhibition of OCR and enhancement of ECAR (XF Analyzer); assay type: cell-based; settings: Homo sapiens, 24 hrs treatment, oxygen consumption rate
Text: Measurement of Mitochondrial Complex I Inhibition
The electron transfer complex in mitochondria is composed of 5 complexes. The complex I accept electrons from NADH produced from glycolysis and TCA cycle and the electrons move to complex […] and the electron is finally transferred to O2 and water molecule is generated. During the electron transfer, proton gradient is generated and the chemical gradient is a driving source to synthesize ATP at complex V. The mitochondrial inhibition of complex I indirectly assessed by measuring the oxygen consumption rate (OCR) at complex IV. […] The solution outside of cells becomes acidic (lower pH) as lactate is transported to outside of cells. OCR and Extracellular acidification rate (ECAR) are determined by XF Analyzer (Seahorse Biosciences).
A549 cells were purchased from American Type Tissue Culture Collection (CCL-185™) and cultured in RPMI 1640 supplied with 10% fetal bovine serum (FBS) and antibiotic-antimycotic (Lifetech, CA). A549 cells were separated with 0.5% Trypsin-EDTA and 3,000 cells were plated on 1 mg/ml poly-D-lysine (Sigma, P6407) coated XF 96 well […]. A549 cells were allowed to adhere to the wells for 24 hours under the condition of temperature, 37° C. and 5% CO2. The sensor cartridge of XF Analyzer was soaked in 200 μl of Calibrant solution (Seahorse, MA) in a clear 96-well plate at 37° C. for 24 hours. The compounds of the present invention were diluted with RPMI 1640 without FBS, transferred to A549 cells on XF 96 well plate, and incubated further for 23 hours at 37° C. and 5% CO2. After incubation, the compound solution was exchanged with pre-warmed and pH adjusted (pH7.4) XF assay media (Seahorse) supplied with 15 mM D-glucose (Sigma), 15 mM sodium pyruvate (Lifetechnologies, CA) and 4 mM L-glutamine (Lifetechnologies, CA). The compounds of present invention were prepared in XF Assay media and added to the assay plate. The assay plate was equilibrated in XF Analyzer for 1 hour, and the reading were started by sensor cartridge. The cytotoxicity assay was followed using Cyquant (Lifetechnologies, CA) in order to calibrate the inhibition with cytotoxicity of compounds. The concentrations of the compounds were tested at 0, 0.5, 1, 5, 10 and 20 μM and IC50 value was obtained from the inhibited values. That is, from OCR inhibition values at each concentration of the compound, IC50 was calculated according to Prism's dose response curve fitting.
In Table 1, the levels of OCR IC50 are evaluated by the following.
According to the test results of the compounds, the compounds were classified into A, B and C.

SK-MEL-28 cells = experiment: Cytotoxicity in low glucose condition (MTT assay); assay type: cell-based; settings: Homo sapiens, SK-MEL-28, 72 h, 0.75 mM glucose, 72 hours treatment, read-out: SK-MEL-280.75 mM glucose cell viability (IC50 μM)
Text: Cytotoxicity Assay in Low Glucose Condition
The inhibition of oxidative phosphorylation (OXPHOS) is not cytotoxic to cells in normal glucose condition, because it is postulated that normal cells have compensatory mechanism under energy stress conditions such as low glucose. However OXPHOS inhibitors show cytotoxic effect on cells in the glucose deprived condition (BirsoyK, 2014). The glucose deprived condition is observed in tumor microenvironment potentially due to poor angiogenesis. Therefore the OXPHOS inhibitors may show anti-cancer effect on cancer cells in low glucose condition that may depict tumor microenvironment.
The compounds of the present invention were evaluated their cytotoxicity in SK-MEL-28, melanoma with 0.75 mM glucose supplement. The cytotoxic effect is compared with the cytotoxicity caused by phenformin. The cytotoxicity in low glucose condition is correlated with inhibition of oxygen consumption in mitochondria.
SK-MEL-28 (HTB-72) is a melanoma cell line obtained from ATCC (MA) and cultured in RPMI 1640 media (Lifetechnologies, CA) with supplement of 10% FBS and antibiotic-antimycotic (Lifetechnologies, CA). RPMI 1640 (−Glucose) was used to prepare low glucose media and 0.75 mM glucose was supplied with D-(+)-glucose solution from Sigma. SK-MEL-28 cells were separated from culture plate using 0.5% trypsin-EDTA and 1,250 cells were plated in 96-well plate with low glucose media. After incubation at 37° C. for 24 hour, 5% CO2, the cells were treated with the compounds of present invention in FBS-free media for 72 hours. The cytotoxicity was measured by the MTT (AMRESCO, OH) assay. NADH-dependent cellular oxidoreductase reduces MTT to its insoluble […] with purple color. The enzyme depends on cell number or energy state of cells. 10 μl of 5 mg/ml MTT solution was added to each well of the assay plate and skip the well for blank. The plate was incubated at 37° C. and 5% CO2 for 2 hours. The MTT solution was removed from each well and 100 μl of DMSO was added. The plate was read by VICTOR X3 Multilabel Counter at the wavelength of 550 nm. In Table 2, the levels of IC50 are evaluated by the following criteria.
According to the concentration of compound for killing the half of cell populations (the levels of IC50), the compounds were classified into A, B and C, when the compounds were treated on SK-MEL-28 cells at 0.75 mM glucose.

Compound | IC50 (A549 cells) [µM] | IC50 (SK-MEL-28 cells) [µM]
N=C(NC(=N)N1CCC(F)(F)CC1)Nc1ccc(F)c(Cl)c1 [Example 11, N—(N-(3-chloro-4-fluorophenyl)carbamimidoyl)-4,4-difluoropiperidine-1-carboximidamide hydrochloride] | > 4 | 6 to 15
N=C(NC(=N)N1CCC(F)(F)CC1)Nc1ccc2c(c1)CCCC2 [Example 2, N—(N-(5,6,7,8-teterhydronaphthalene-2-yl)carbamimidoyl)-4,4-difluoro piperidine-1-carboximidamide hydrochloride] | > 4 | 6 to 15
N=C(NC(=N)N1CCC(F)(F)CC1)Nc1ccc(C(F)(F)F)cc1 [Example 21, N—(N-(4-(trifluoromethyl)phenyl)carbamimidoyl)-4,4-difluoropiperidine-1-carboximidamide acetate] | 2 to 4 | < 6

Continued, in another order:

IC50 (A549 cells) [µM] | Compound | IC50 (SK-MEL-28 cells) [µM]
2 to 4 | N=C(NC(=N)N1CCC(F)(F)CC1)Nc1ccc(SC(F)(F)F)cc1 [Example 9, N—(N-(4-(trifluoromethythio)phenyl)carbamimidoyl)-4,4-difluoro piperidine-1-carboximidamide hydrochloride] | < 6
< 2 | N=C(NC(=N)N1CCC(F)(F)C1)Nc1cccc(Oc2ccccc2)c1 [Example 29, N—(N-(3-phenoxyphenyl)carbamimidoyl)-3,3-difluoropyrrolidine-1-carboximidamide acetate] | < 6

— patent US10590081B2, “Guanidine compounds and use thereof” (ImmunoMet Therapeutics Inc., priority 2015, dated 2020)
